Laboratory results: ChEMBL document CHEMBL2401631, “Small molecules inhibit the interaction of Nrf2 and the Keap1 Kelch domain through a non-covalent mechanism” (Bioorg Med Chem, 2013)
Calls of active or inactive are those of the source. The rule behind the calls is not given here.

Assays:
Assay type in all cases: cell-based
[1] = biological target: T1, Nuclear factor erythroid 2-related factor 2 (Homo sapiens) (UniProt Q16236); test: Activation of Nrf2 in human DLD1 cells assessed as increase of NQO1 protein level at 20 uM after 48 hrs by Western blot analysis; settings: DLD-1
T1 sequence (whole entry): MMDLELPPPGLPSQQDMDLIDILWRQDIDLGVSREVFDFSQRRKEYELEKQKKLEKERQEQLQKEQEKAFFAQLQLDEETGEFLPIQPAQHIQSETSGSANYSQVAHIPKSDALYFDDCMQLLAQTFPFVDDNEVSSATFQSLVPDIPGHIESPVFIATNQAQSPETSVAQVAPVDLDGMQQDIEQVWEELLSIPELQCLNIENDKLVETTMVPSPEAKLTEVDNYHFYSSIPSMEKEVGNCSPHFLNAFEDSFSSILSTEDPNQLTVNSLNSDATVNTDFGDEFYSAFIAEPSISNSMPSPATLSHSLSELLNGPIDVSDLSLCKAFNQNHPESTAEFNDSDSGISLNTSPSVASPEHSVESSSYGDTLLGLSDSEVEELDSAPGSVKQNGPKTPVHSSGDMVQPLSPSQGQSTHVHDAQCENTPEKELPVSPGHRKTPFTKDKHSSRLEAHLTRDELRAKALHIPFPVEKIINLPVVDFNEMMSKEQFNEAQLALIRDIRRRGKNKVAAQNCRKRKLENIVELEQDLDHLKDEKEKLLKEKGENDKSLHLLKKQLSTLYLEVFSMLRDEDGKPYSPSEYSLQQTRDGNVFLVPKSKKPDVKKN

[2] = biological target: Kelch-like ECH-associated protein 1 (Homo sapiens) (UniProt Q14145); test: Binding affinity to human recombinant Kelch-DC domain of Keap1 (321 to 609) expressed in HEK293T cells assessed as covalent adduct formation with cysteines at 1 mM after 15 hrs by 2D-FIDA assay; settings: HEK-293T
Chain of Kelch-like ECH-associated protein 1 (Homo sapiens) (Q14145 whole entry, the tested form may be a part): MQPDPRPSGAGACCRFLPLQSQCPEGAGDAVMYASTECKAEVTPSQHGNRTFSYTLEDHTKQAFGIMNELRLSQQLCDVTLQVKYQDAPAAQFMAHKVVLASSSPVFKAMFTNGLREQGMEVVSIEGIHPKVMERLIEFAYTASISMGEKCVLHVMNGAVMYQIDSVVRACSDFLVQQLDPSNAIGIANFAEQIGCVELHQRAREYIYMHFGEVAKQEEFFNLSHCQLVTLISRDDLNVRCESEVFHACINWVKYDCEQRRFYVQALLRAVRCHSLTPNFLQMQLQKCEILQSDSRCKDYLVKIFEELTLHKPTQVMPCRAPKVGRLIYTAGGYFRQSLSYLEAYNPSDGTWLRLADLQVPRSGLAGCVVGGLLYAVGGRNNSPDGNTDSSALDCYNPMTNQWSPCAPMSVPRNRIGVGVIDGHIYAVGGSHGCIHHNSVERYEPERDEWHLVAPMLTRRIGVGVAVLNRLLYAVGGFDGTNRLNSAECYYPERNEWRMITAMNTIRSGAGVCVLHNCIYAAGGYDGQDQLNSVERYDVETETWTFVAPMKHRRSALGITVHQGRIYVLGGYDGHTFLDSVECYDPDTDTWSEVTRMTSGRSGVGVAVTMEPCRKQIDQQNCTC

[3] = biological target: T1, Nuclear factor erythroid 2-related factor 2 (Homo sapiens); test: Activation of Nrf2 in human DLD1 cells after 24 to 48 hrs by luciferase reporter gene assay; settings: DLD-1
[4] = biological target: T1, Nuclear factor erythroid 2-related factor 2 (Homo sapiens); test: Activation of Nrf2 in human DLD1 cells assessed as stabilization of Nrf2 protein at 20 uM after 48 hrs by Western blot analysis; settings: DLD-1

Activity [1] | Activity [2] | Activity [3] | Activity [4] | Compound
Active | Active | Dose-dependent effect | Active | COC(=O)/C=C/C(=O)OC
– | – | Dose-dependent effect | – | COC(=O)/C=C/C(=O)O
Active | inactive | Dose-dependent effect | Active | COc1ccc(S(=O)(=O)Nc2ccc(NS(=O)(=O)c3ccc(OC)cc3)c3ccccc23)cc1
